Experimental data from the supplement of paper PMC10307832.

Assays:
Experiment in all cases: relative viability (nuclei count vs DMSO), 5 days (fraction); higher = more cells survive
[1] = compound: CC(C)C[C@@H](C(=O)N[C@H](C(=O)OC1CCCC1)c1ccccc1)[C@H](O)C(=O)NO [Tosedostat] + CS(=O)(=O)CCNCc1ccc(-c2ccc3ncnc(Nc4ccc(OCc5cccc(F)c5)c(Cl)c4)c3c2)o1 [Lapatinib] (partner 2 µM)
Outline: (§1)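 Lung cancer cell lines in 1536-well plates got either a single drug or a fixed anchor-drug dose together with five library-drug doses (not always all listed) in √10 steps, by pin tool, on the day after seeding. Nuclei were counted after 5 days, and relative viability is the treated-to-vehicle ratio of nuclei counts. Values are medians of duplicate plates.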

[2] = compound: CC1=NN=C(O1)C2=NN=C(C=C2)N3CCC(CC3)OC4=C(C=CC(=C4)F)Cl + Cc1cc(Nc2cc(N3CCN(C)CC3)nc(Sc3ccc(NC(=O)C4CC4)cc3)n2)n[nH]1 [Tozasertib] (partner 0.1 µM)
Outline: as §1

[3] = compound: CC1=NN=C(O1)C2=NN=C(C=C2)N3CCC(CC3)OC4=C(C=CC(=C4)F)Cl + Cc1nc(NC(=O)N2CCC[C@H]2C(N)=O)sc1-c1ccnc(C(C)(C)C(F)(F)F)c1 [Alpelisib] (partner 2 µM)
Outline: as §1

[4] = compound: CC1=NN=C(O1)C2=NN=C(C=C2)N3CCC(CC3)OC4=C(C=CC(=C4)F)Cl + O=C(c1cc(Cc2n[nH]c(=O)c3ccccc23)ccc1F)N1CCN(C(=O)C2CC2)CC1 [Olaparib] (partner 8 µM)
Outline: as §1

Row | Cell Line | relative viability ([1]; first compound 0.02 µM) | relative viability ([1]; first compound 0.06325 µM) | relative viability ([1]; first compound 0.2 µM) | relative viability ([1]; first compound 0.6325 µM) | relative viability ([1]; first compound 2 µM) | relative viability ([2]; first compound 0.253 µM) | relative viability ([2]; first compound 0.8 µM) | relative viability ([2]; first compound 2.53 µM) | relative viability ([2]; first compound 8 µM) | relative viability ([3]; first compound 0.253 µM) | relative viability ([3]; first compound 0.8 µM) | relative viability ([3]; first compound 2.53 µM) | relative viability ([3]; first compound 8 µM) | relative viability ([4]; first compound 0.253 µM) | relative viability ([4]; first compound 0.8 µM) | relative viability ([4]; first compound 2.53 µM) | relative viability ([4]; first compound 8 µM)
1 | EKVX | 0.19 | 0.233 | 0.418 | 0.218 | 0.227 | 0.258 | 0.15 | 0.196 | 0.196 | 0.446 | 0.323 | 0.363 | 0.462 | 0.402 | 0.381 | 0.464 | 0.494
2 | EMC-BAC-2 | 0.894 | 0.888 | 0.894 | 0.853 | 0.955 | 0.314 | 0.274 | 0.283 | 0.284 | 0.69 | 0.649 | 0.695 | 0.581 | 0.376 | 0.414 | 0.457 | 0.441
3 | EPLC-272H | 1.03 | 0.944 | 0.637 | 0.755 | 0.621 | 0.36 | 0.228 | 0.184 | 0.158 | 0.925 | – | 1.14 | 0.917 | 0.744 | 0.742 | 0.758 | 0.657
4 | H3255 | 0.262 | 0.227 | 0.224 | 0.255 | 0.253 | 0.619 | 0.489 | 0.589 | 0.542 | 0.562 | 0.614 | 0.633 | 0.571 | 0.483 | 0.498 | 0.5 | 0.527
5 | HARA | 0.756 | 0.797 | 0.611 | 0.775 | 0.574 | 0.0993 | 0.0831 | 0.0894 | 0.0804 | 0.54 | 0.479 | 0.516 | 0.481 | 0.331 | 0.244 | 0.317 | 0.256
